# US8901276B2, “Peptide reagents and methods for detection of colon dysplasia” (The Regents of the University of Michigan, priority 2010, dated 2014)
# Where no end group is shown, it is not given here.
# How the values were obtained:
# HT29 cells [1] = assay: Kinetic measurements by flow cytometry; type: binding, human; conditions: for rate constant K: 10 μM, 4° C., 0-60 min, first order fit
# Protocol: The binding kinetics for AKP-monomer and AKP-multimer peptide was further evaluated on the target cells in the presence of 10 μM peptide concentration. The target cells (5×10^5) were detached and blocked as mentioned earlier and incubated with both monomer and multimer peptides at 4° C. over time from 0-60 min. After completing the incubation for each time course, the samples were prepared for flow cytometry, as mentioned above. The kinetics of peptide binding with the cell surface was determined by measuring the shift in the intensity of FITC-channel as a function of time. The resulting data were converted to median values as a function of time, and the rate constant was calculated using first order rate kinetics Y=a−b*exp^(−kx); where a=maximum value, b=difference in intensity (I−I0), and K=rate constant. Curve fits were performed using Origin 6.1 data analysis software.
# colonic adenomas [2] = assay: In vivo NIR imaging of Cy5.5-labeled AKP peptides; design: species or system CPC;Apc mice; conditions: for T/B ratio: 100 μM, 1.5 mL topical, 5 min; for detection of lesions by size: adenomas ˜0.5 to 4 mm
# Protocol: The binding activity of the synthetic peptides to colonic dysplasia was assessed in vivo in 3 cohorts of CPC;Apc mice: 1) AKP-multimer, n=14 mice with n=33 adenomas, 2) AKP-monomer, n=14 mice with n=27 adenomas, and 3) trilysine core, n=8 mice with n=17 adenomas as a control. For the imaging studies, anesthesia was induced and maintained in the animals with inhaled isoflurane mixed with oxygen via a nose cone at a dose of 4% and 2% at a flow rate of 0.5 liter/min, respectively. Prior to applying the peptides, the colon was prepped using a tap water lavage. The adenomas were viewed endoscopically, and videos were recorded using white light with a small animal endoscope (Karl Storz Veterinary Endoscopy, Goleta, Calif.). The colon was rinsed with water until all mucous and other debris was removed. Adenomas from approximately 0.5-4 mm in diameter that were not covered in debris, including stool and mucous, were included in the study.
# The Cy5.5-labeled peptides were delivered at a concentration of 100 μM in PBS containing 2.5% DMSO (dimethyl sulfoxide) through the instrument channel of the endoscope. During peptide administration, 1.5 mL of peptide was delivered to the distal colon in each mouse. The peptide was allowed to incubate for 5 min after which the colon was cleansed 3× with a tap water to remove the unbound peptide. Prior to imaging, the colon was inspected for residual peptide solution, and when clean, the colon was insufflated with air and imaged with the wide field endoscope which provides excitation at 671 nm. Fluorescence and reflectance videos were collected using Axiovision 4.8.1 software. Fluorescence videos were collected at 100 ms/frame (10 Hz), and transferred to the computer for storage by a firewire connection. A filter wheel was incorporated into the handle of the housing to quickly switch between collection of reflectance and fluorescence images. White light, fluorescence and reflectance images were collected from 1) n=14 mice having n=33 adenomas with AKP-multimer, 2) n=14 mice having n=27 adenomas with AKP-monomer, and 3) n=8 mice having n=17 adenomas with the trilysine (control). The CPC;Apc mice imaged ranged in age from 3 to 6 months. Fluorescence images were exported as videos in zvi format (16 bit digital resolution) using LabView software. Sequentially-collected white light and fluorescence images for each adenoma were analyzed. Separate regions of interest (ROI) were defined around the adenoma and adjacent normal-appearing mucosa on the white light image, and the ROI's were overlayed onto the fluorescence images. The target to-background (T/B) ratio was determined by ratioing the mean intensities from these 2 ROI's.
# SW480 cell line = assay: Measurement of binding affinity by flow cytometry; design: species or system human; conditions: FITC-labeled, 0 to 10 μM, 4° C., 1 hr
# Protocol: (§1) The binding affinity of multimer and monomer peptide was measured by varying the concentration of the 5-FITC-labeled peptides and trilysine incubated with the target cells (1×10^5) until saturation of fluorscence intensity was achieved. The FITC-labeled peptide was serially diluted in PBS at concentrations that varied from 0 to 10 μM and incubated with the target cells at 4° C. for 1 hr. The unbound peptide was rinsed off the cells by washing 3× with cold PBS/0.2% Tween-20 solution. The cells were fixed with 4% PFA, as mentioned above, washed 1× with PBS, and resuspended in 1 mL of PBS. Cells were transferred to a 5 mL tube and subjected to flow-cytometric analysis. The median fluorescence intensity from each concentration of peptides was used to calculate the affinity constant. The equilibrium dissociation constants (Kd=1/Ka) of the peptide-cell interaction were obtained by fitting the data to the non-linear equation I[X]=(I0+ImaxKa[X])/(I0+Ka[X]). I0 and Imax are the initial and maximum fluorescence intensities, corresponding to no peptide and at saturation, respectively, and [X] represents the concentration of the bound peptide. Origin 6.1 data analysis software (Origin Lab Corp, Northampton, Mass.) was used to perform a non-linear least square fit of the data.
# HT29 cells [3] = assay: Measurement of binding affinity by flow cytometry; design: species or system human; conditions: FITC-labeled, 0 to 10 μM, 4° C., 1 hr
# Protocol: as §1
# CCD-841Con cells [4] = assay: Fluorescence microscopy of FITC-labeled AKP peptides; type: cell-based, human; conditions: 10 μM, 4° C., 1 hr
# Protocol: (§2) Preferential binding of the FITC-labeled peptides to the target and non-target cells as mentioned above was further validated via fluorescence microscopy. Cells (˜7.5×10^3) were seeded on cover slips to ˜80% confluence. The cells were then incubated with 10 μM of 5-FITC-labeled peptides and trilysine at 4° C. for 1 hr followed by staining with 1 μg/mL Hoechst dye (Sigma Aldrich, St. Louis, Mo.). The cells were washed 3× with PBS and fixed with 4% paraformaldehyde at RT for 10 min. After fixation, the cells were washed again with PBS (1×) and mounted with ProLong Gold reagent (Invitrogen, Carlsbad, Calif.) and fluorescence images were collected with confocal microscopy (Leica TCS SP5 Microsystems, Bannockburn, Ill.). The specific peptide binding activity of the FITC-labeled AKP-multimer and AKP-monomer peptides was compared.
# HT29 cells [5] = assay: as above; type: cell-based, human
# Protocol: as §2
# SW480 cells [6] = assay: as above; type: cell-based, human; conditions: 10 μM, 4° C., 1 hr
# Protocol: as §2
# CCD-841Con cells [7] = assay: Flow cytometry of FITC-labeled AKP peptides; type: cell-based, human; conditions: 10 μM, 60 min, 4° C.
# Text: (§3) Peptides labeled with 5-FITC were used for the validation assays of cell binding. Preferential binding of the multimer peptide, monomer peptide, and trilysine to different human colorectal cancer (SW480, and HT29) and control cells (CCD841-Con) was validated on flow cytometry. A total of 5×10^5 cells were used with each probe. The confluent cells were detached using enzyme free cell dissociation buffer (Invitrogen, Carlsbad, Calif.) or trypsin with 0.25% EDTA (Mediatech Inc, Manassa, Va.) and immersed in blocking buffer, PBS with 1% bovine serum albumin (BSA), for 30 min at 4° C. with continuous agitation. After blocking, cells were washed with 1×PBS and spun down for 5 min at 1000 rpm. Then cells were incubated with the 5-FITC labeled peptides and trilysine (10 μM) for 60 min at 4° C. with continuous agitation. The cells were then washed 3× with cold PBST followed by immediate fixation for 10 min with 4% paraformaldehyde. The cells were washed again (1×) with PBS and resuspended in 1 mL of PBS. Flow cytometry was performed using FACSDiVa (BD® LSRII, BD Biosciences, San Jose, Calif.) and analyzed using Flowjo analysis program (Tree Star Inc, Ashland, Oreg.). The gain was kept constant for all experiments.
# HT29 cells [8] = assay: Flow cytometry of FITC-labeled AKP peptides; type: cell-based, human
# Text: as §3
# SW480 cells [9] = assay: Flow cytometry of FITC-labeled AKP peptides; type: cell-based, human; conditions: 10 μM, 60 min, 4° C.
# Text: as §3
# [10] = test system: dysplastic crypts of excised polyps; assay: Confocal fluorescence imaging of ex vivo binding; design: species or system CPC;Apc mice; conditions: ex vivo incubated polyps
# Protocol: Preferential binding of the Peptide 1 compared to the Control peptide 1 on the adenomatous polyps was again confirmed with confocal microscopy. After peptide incubation, excised polyps were incubated ex vivo in 1 μg/mL Hoechst dye for 5 min to stain living nuclei, rinsed 3× with 1×PBS and imaged on an Olympus Confocal Microscope (Olympus, Tokyo, Japan).
# colonic adenomas [11] = assay: In vivo small animal fluorescence endoscopy with FITC-labeled peptides; design: species or system CPC;Apc mice; conditions: topical, 5 min incubation, mean±SD
# Protocol: Prior to peptide administration, the colon was prepped using a tap water lavage. Using a small animal endoscope (Karl Storz Veterinary Endoscopy, Goleta, Calif.) with an instrument channel for performing biopsy, polyps suitable for peptide administration were located and the colon was rinsed with water until all mucous was removed. FITC-labeled Peptide 1 and Control peptide 1 were delivered in 1×PBS through the instrument channel. The peptides were allowed to incubate for 5 minutes after which the colon was cleansed 3× with a tap water to remove the unbound peptide. […] Fluorescence excitation produced with a 450-475 nm passband filter that can be manually switched to the optical path of a 175 W Nova Xenon light source was delivered to the endoscope via a 3 mm diameter fluid light cable (250 cm length). Fluorescence images were collected with a 510 nm long-pass barrier filter to block the excitation light and detected with a 3-chip color camera with an integrated parfocal zoom lens. Real time video was recorded via firewire connected to a personal computer. Polyps in CPC;Apc mice developing distal colonic adenomas (Peptide 1, n=6 mice, n=18 polyps; Control peptide 1, n=4 mice, n=7 polyps) in addition to Cre recombinase negative littermate controls (Peptide 1, n=2 mice) and Hyperplastic Kras mice (Peptide 1, n=3 mice) were imaged using both white light and fluorescence endoscopy. […]
# [12] = test system: isolated colonic epithelial cells from adenomas; assay: Flow cytometry of FITC-conjugated phage clones; type: cell-based, CPC;Apc mice
# Text: Specific binding of the candidate peptides to primary dysplastic colonic epithelial cells were validated on flow cytometry ex vivo and with small animal endoscopy in vivo using FITC-labeled peptides using a non-scanning white light endoscope.
# Phages that bound to colonic adenomas approximately 10 times greater in number than to normal appearing colonic mucosa were chosen. As a result, 42 individual phage clones were sequenced from the third round of biopanning, and were individually amplified and conjugated to 5′-FITC. Binding to isolated colonic epithelial cells from adenomas for each phage clone was analyzed using flow cytometry. A common 7-mer phage that expresses the sequence HAIYPRH (SEQ ID NO: 29) is a known contaminant, and was run (labeled # in Supplementary FIG. 1B) to ensure the validity of the assay. […] Six phage clones with a T/B ratio (target to wild-type phage)>1.9 were identified as ALTPTPP (SEQ ID NO: 30), NLVNLLP (SEQ ID NO: 31), ANYPREP (SEQ ID NO: 32), ATTVPAS (SEQ ID NO: 33), LTTHYKL (SEQ ID NO: 26), and AKPGYLS (SEQ ID NO: 25). The KCCFPAQ (SEQ ID NO: 2) peptide had been previously found to bind to human HT29 cells.
# [13] = cell line not specified (SW480, HT29, CCD-841Con tested)
substance,measurement,setting,value
"AKP-multimer: tetrameric version of AKPGYLS anchored on a trilysine core; Cy5.5 label in vivo, FITC label in vitro (also: tetramer on trilysine core, Cy5.5 or FITC label)",binding speed relative to AKP-monomer,HT29 cells [1],~2 fold
same,rate constant K,HT29 cells [1],0.1136 min⁻¹
same,rate constant K,HT29 cells [1]; listed as multimer,0.1136 min⁻¹
same,NIR fluorescence signal from adenomas,colonic adenomas [2]; Cy5.5-labeled,significantly amplified
same,average fluorescence intensity from colonic adenomas relative to AKP-monomer and trilysine control,colonic adenomas [2]; Cy5.5-labeled,~1.8 fold
same,T/B ratio,colonic adenomas [2]; Cy5.5-labeled,3.84±0.26
same,detection of lesions by size,colonic adenomas [2],detected all lesions regardless of size
same,Kd,SW480 cell line,101 nM
same,Kd,HT29 cells [3],6.4 nM
same,binding to plasma membrane,CCD-841Con cells [4],not to CCD-841Con cells
same,binding to plasma membrane,"HT29 cells [5]; HT29, FITC-labeled, 10 μM, 4° C., 1 hr",bound specifically to the plasma membrane
same,binding to plasma membrane,SW480 cells [6],bound specifically to the plasma membrane
same,counts relative to unstained cells,CCD-841Con cells [7],2.2 times
same,counts relative to unstained cells,"HT29 cells [8]; HT29, FITC-labeled, 10 μM, 60 min, 4° C.",26.1 times
same,counts relative to unstained cells,SW480 cells [9],20.2 times
"AKPGYLSGGGSK-NH2 [AKP-monomer, Cy5.5 label in vivo, FITC label in vitro]",rate constant K,HT29 cells [1],0.0663 min⁻¹
same,NIR fluorescence signal from adenomas,colonic adenomas [2]; Cy5.5-labeled,faint fluorescence intensity
same,T/B ratio,colonic adenomas [2]; Cy5.5-labeled,2.21±0.13
same,detection of lesions by size,colonic adenomas [2],did not visualize lesions smaller than ˜1 mm
same,Kd,SW480 cell line,1210 nM
same,Kd,HT29 cells [3],310 nM
same,cell staining on microscopy,HT29 cells [5]; [13],lower fluorescence intensity at the cell surface
same,extent of cell binding on flow cytometry,HT29 cells [8]; [13],bound to a lower extent than the AKP-multimer
"GGGAGGGA [FITC-Control peptide 1, control peptide containing Gly and Ala, FITC-labeled]","binding to dysplastic crypts, confocal microscopy",[10],Minimal to no binding
same,"T/B (polyp/normal colon, target to background ratio)",colonic adenomas [11],1.14±0.15
HAIYPRH,T/B ratio (target to wild-type phage),[12],1.10±0.08
